US7538241B2, “Hsp90 family protein inhibitors” (Kyowa Hakko Kogyo Co., Ltd., priority 2003, dated 2009)

Columns and labels:
[1] = tested on: human chronic myelocytic leukemia-derived K562 cells; assay: Cell growth inhibition test with K562 cells (WST-1); type: cell-based; settings: 72 hours, read-out: 50% growth inhibition concentration (GI50)
Protocol: In a 96-well plate (Nunc), human chronic myelocytic leukemia-derived K562 cells were sown in an amount of 1500 cells/well, and pre-incubated in 10% FCS-containing Rosewell Park Memorial Institute's Medium (RPMI) 1640 (Nissui) (incubation medium) in a 5% carbon dioxide incubator at 37° C. for 5 hours. Next, a DMSO solution of a test compound controlled at 10 mmol/L was stepwise diluted with the incubation medium, and added to each well in a total amount of 100 μL/well, and further incubated in the 5% carbon dioxide incubator at 37° C. for 72 hours. After the incubation, WST-1-labeled mixture (Rosh Diagnostic) diluted 2-fold with the incubation medium was added thereto in an amount of 20 μL/well, and incubated in the 5% carbon dioxide incubator at 37° C. for 2 hours. Using a microplate spectrophotometer (Biorad's Model 550), the absorbance at 450 nm and 655 nm of each well was measured. The cell growth inhibition activity of the test compound was indicated by the 50% growth inhibition concentration (GI50) thereof, like in Test Example 2.

[2] = tested on: human mammary cancer-derived KPL-4 cells; assay: Cell growth inhibition test with KPL-4 cells (WST-1); type: cell-based; settings: KPL4, 72 hours, read-out: 50% growth inhibition concentration (GI50)
Outline: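 Growth inhibition from WST-1 absorbance difference (450 minus 655 nm) after 1 h, relative to untreated control as 100%, giving GI50. KPL-4 cells had 24 h pre-culture in DMEM/10% FCS before 72 h compound exposure at 37 °C under 5% CO2.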

| GI50 [1] [µM] | GI50 [2] [µM] | Compound |
| --- | --- | --- |
| ≤ 50 |  | CCc1c(O)cc(O)c(-c2ccc(OC)c(OC)c2)c1CCOCCO [Compound 309, 6-Ethyl-5-[2-(2-hydroxyethoxy)ethyl]-4-(3,4-dimethoxyphenyl)benzene-1,3-diol] |
| ≤ 50 |  | CC(=O)c1c(O)cc(O)c(-c2cccc(O)c2)c1CCOCCO [Compound 310, 1-{2,4-Dihydroxy-6-[2-(2-hydroxyethoxy)ethyl]-5-(3-hydroxyphenyl)phenyl}ethanone] |
| ≤ 50 |  | CCc1c(O)cc(O)c(-c2ccc(F)c(Cl)c2)c1CCOCCO [Compound 312, 4-(3-Chloro-4-fluorophenyl)-6-ethyl-5-[2-(2-hydroxyethoxy)ethyl]benzene-1,3-diol] |
| ≤ 50 |  | CCc1c(O)cc(O)c(-c2ccc(F)c(C)c2)c1CCOCCO [Compound 314, 6-Ethyl-4-(4-fluoro-3-methylphenyl)-5-[2-(2-hydroxyethoxy)ethyl]benzene-1,3-diol] |
| ≤ 50 |  | CCc1c(O)cc(O)c(-c2ccccc2)c1Cc1n[nH]c(=O)o1 [Compound 315, 5-[(2-ethyl-3,5-dihydroxy-6-phenylphenyl)methyl]-3H-1,3,4-oxadiazol-2-one] |
| ≤ 50 |  | CCc1c(O)cc(O)c(-c2ccccc2)c1CCN1CCCC1CO (centres unmarked) [Compound 316, 6-Ethyl-5-{2-[2-(hydroxymethyl)pyrrolidin-1-yl]ethyl}-4-phenylbenzene-1,3-diol] |
| ≤ 50 |  | CCc1c(O)cc(O)c(-c2ccccc2)c1Cc1nn(CCO)c(=O)o1 [Compound 318, 5-[(2-Ethyl-3,5-dihydroxy-6-phenylphenyl)methyl]-3-(2-hydroxyethyl)-3H-1,3,4-oxadiazol-2-one] |
| ≤ 50 |  | CCc1c(O)cc(O)c(-c2ccccc2)c1CCN1C(=O)OCC1C(=O)OC (centres unmarked) [Compound 319, Methyl 3-[2-(2-ethyl-3,5-dihydroxy-6-phenylphenyl)ethyl]-2-oxo-1,3-oxazolidine-4-carboxylate] |
| ≤ 50 |  | CCc1c(O)cc(O)c(-c2ccccc2)c1CCN1CCC(O)C1 (centres unmarked) [Compound 321, 6-Ethyl-5-[2-(3-hydroxypyrrolidin-1-yl)ethyl]-4-phenylbenzene-1,3-diol] |
| ≤ 50 |  | CCc1c(O)cc(O)c(-c2ccccc2)c1CC(=O)N(CCO)CCCOC [Compound 322, 2-(2-Ethyl-3,5-dihydroxy-6-phenylphenyl)-N-(2-hydroxyethyl)-N-(3-methoxypropyl)acetamide] |
| ≤ 50 |  | CCc1c(O)cc(O)c(-c2cccc(OC)c2)c1Cc1nn(CCO)c(=O)o1 [Compound 323, 5-{[2-Ethyl-3,5-dihydroxy-6-(3-methoxyphenyl)phenyl]methyl}-3-(2-hydroxyethyl)-3H-1,3,4-oxadiazol-2-one] |
| ≤ 50 |  | CCc1c(O)cc(O)c(-c2cccc(O)c2)c1Cc1nn(CCOC)c(=O)o1 [Compound 324, 5-{[2-Ethyl-3,5-dihydroxy-6-(3-hydroxyphenyl)phenyl]methyl}-3-(2-methoxyethyl)-3H-1,3,4-oxadiazol-2-one] |
| ≤ 50 |  | CCOC(=O)Oc1cc(OC(=O)OCC)c(-c2ccccc2)c(CCOCCOC)c1CC [Compound 325, 1,5-Bis(ethoxycarbonyloxy)-4-ethyl-3-[2-(2-methoxyethoxy)ethyl]-2-phenylbenzene] |
| ≤ 50 |  | CCc1c(OC(C)=O)cc(OC(C)=O)c(-c2ccccc2)c1CCOCCOC [Compound 328, 1,5-Bis(acetyloxy)-4-ethyl-3-[2-(2-methoxyethoxy)ethyl]-2-phenylbenzene] |

Continued, compound first:

| Compound | GI50 [1] [µM] | GI50 [2] [µM] |
| --- | --- | --- |
| COCCN(C)C(=O)Cc1c(Br)c(O)cc(O)c1-c1ccccc1 [Compound 37, 2-(2-Bromo-3,5-dihydroxy-6-phenylphenyl)-N-(2-methoxyethyl)-N-methylacetamide] | ≤ 50 | ≤ 50 |
| COC(=O)Cc1c(C(C)=O)c(O)cc(O)c1-c1ccccc1 [Compound 69, Methyl 2-acetyl-3,5-dihydroxy-6-phenylphenylacetate] | ≤ 50 | ≤ 50 |
| CCc1c(O)cc(O)c(-c2ccccc2)c1CCOC [Compound 83, 6-Ethyl-5-(2-methoxyethyl)-4-phenylbenzene-1,3-diol] | ≤ 50 | ≤ 50 |
| OCCCc1c(Br)c(O)cc(O)c1-c1ccccc1 [Compound 104, 6-Bromo-5-(3-hydroxypropyl)-4-phenylbenzene-1,3-diol] | ≤ 50 | ≤ 50 |
| CCc1c(O)cc(O)c(-c2ccccc2)c1CCCO [Compound 123, 6-Ethyl-5-(3-hydroxypropyl)-4-phenylbenzene-1,3-diol] | ≤ 50 | ≤ 50 |
| CCc1c(O)cc(O)c(-c2cccc(C)c2)c1CCOC [Compound 130, 6-Ethyl-5-(2-methoxyethyl)-4-(3-methylphenyl)benzene-1,3-diol] | ≤ 50 | ≤ 50 |
| CCc1c(O)cc(O)c(-c2ccc(F)c(Cl)c2)c1CC1O[C@H](CO)[C@@H](CO)O1 [Compound 293, 5-{[(4R,5R)-4,5-bis(hydroxymethyl)-1,3-dioxolan-2-yl]methyl}-4-(3-chloro-4-fluorophenyl)-6-ethylbenzene-1,3-diol] | ≤ 50 |  |
| CCc1c(O)cc(O)c(-c2cccc(C(=O)NC)c2)c1CC1O[C@H](CO)[C@@H](CO)O1 [Compound 294, 5-{[(4R,5R)-4,5-Bis(hydroxymethyl)-1,3-dioxolan-2-yl]methyl}-6-ethyl-4-[3-(methylcarbamoyl)phenyl]benzene-1,3-diol] | ≤ 50 |  |
| CCc1c(O)cc(O)c(-c2cccc(C(N)=O)c2)c1CC1O[C@H](CO)[C@@H](CO)O1 [Compound 295, 5-{[(4R,5R)-4,5-bis(hydroxymethyl)-1,3-dioxolan-2-yl]methyl}-4-(3-carbamoylphenyl)-6-ethylbenzene-1,3-diol] | ≤ 50 |  |
| CCc1c(O)cc(O)c(-c2cccc(F)c2)c1CC1O[C@H](CO)[C@@H](CO)O1 [Compound 296, 5-{[(4R,5R)-4,5-bis(hydroxymethyl)-1,3-dioxolan-2-yl]methyl}-6-ethyl-4-(3-fluorophenyl)benzene-1,3-diol] | ≤ 50 |  |
| CCc1c(O)cc(O)c(-c2cccc(O)c2)c1CC1O[C@H](CO)[C@@H](CO)O1 [Compound 298, 5-{[(4R,5R)-4,5-Bis(hydroxymethyl)-1,3-dioxolan-2-yl]methyl}-6-ethyl-4-(3-hydroxyphenyl)benzene-1,3-diol] | ≤ 50 |  |
| CCc1c(O)cc(O)c(-c2ccc(F)c(F)c2)c1CC1O[C@@H](CO)[C@H](CO)O1 [Compound 299, 5-{[(4S,5S)-4,5-bis(hydroxymethyl)-1,3-dioxolan-2-yl]methyl}-4-(3,4-difluorophenyl)-6-ethylbenzene-1,3-diol] | ≤ 50 |  |
| CCc1c(O)cc(O)c(-c2ccc(F)c(Cl)c2)c1CC1O[C@@H](CO)[C@H](CO)O1 [Compound 301, 5-{[(4S,5S)-4,5-Bis(hydroxymethyl)-1,3-dioxolan-2-yl]methyl}-4-(3-chloro-4-fluorophenyl)-6-ethylbenzene-1,3-diol] | ≤ 50 |  |
| CCc1c(O)cc(O)c(-c2cccc(C(=O)NCCOC)c2)c1CC1O[C@H](CO)[C@@H](CO)O1 [Compound 303, 5-{[(4R,5R)-4,5-Bis(hydroxymethyl)-1,3-dioxolan-2-yl]methyl}-6-ethyl-4-[3-(2-methoxyethyl)carbamoylphenyl]benzene-1,3-diol] | ≤ 50 |  |
| CCc1c(O)cc(O)c(-c2cccc(C(=O)NCCO)c2)c1CC1O[C@H](CO)[C@@H](CO)O1 [Compound 304, 5-{[(4R,5R)-4,5-Bis(hydroxymethyl)-1,3-dioxolan-2-yl]methyl}-6-ethyl-4-[3-(2-hydroxyethyl)carbamoylphenyl]benzene-1,3-diol] | ≤ 50 |  |
| CCc1c(O)cc(O)c(-c2cccc(C(=O)NC3CC3)c2)c1CC1O[C@H](CO)[C@@H](CO)O1 [Compound 305, 5-{[(4R,5R)-4,5-Bis(hydroxymethyl)-1,3-dioxolan-2-yl]methyl}-4-[3-(2-cyclopropylcarbamoyl)phenyl]-6-ethylbenzene-1,3-diol] | ≤ 50 |  |
| CCCNC(=O)c1cccc(-c2c(O)cc(O)c(CC)c2CC2O[C@H](CO)[C@@H](CO)O2)c1 [Compound 306, 5-{[(4R,5R)-4,5-Bis(hydroxymethyl)-1,3-dioxolan-2-yl]methyl}-6-ethyl-4-[3-(propylcarbamoyl)phenyl]benzene-1,3-diol] | ≤ 50 |  |
| CCc1c(O)cc(O)c(-c2cccc(O)c2)c1CC1O[C@H](COC)[C@@H](COC)O1 [Compound 307, 5-{[(4R,5R)-4,5-Bis(methoxymethyl)-1,3-dioxolan-2-yl]methyl}-6-ethyl-4-(3-hydroxyphenyl)benzene-1,3-diol] | ≤ 50 |  |
| CCc1c(O)cc(O)c(-c2ccccc2)c1CC1O[C@H](COC)[C@@H](COC)O1 [Compound 308, 5-{[(4R,5R)-4,5-Bis(methoxymethyl)-1,3-dioxolan-2-yl]methyl}-6-ethyl-4-phenylbenzene-1,3-diol] | ≤ 50 |  |
| CCc1c(OC(=O)N(C)C)cc(OC(=O)N(C)C)c(-c2ccccc2)c1CCOCCOC [Compound 326, 1,5-Bis(dimethylcarbamoyloxy)-4-ethyl-3-[2-(2-methoxyethoxy)ethyl]-2-phenylbenzene] | ≤ 50 |  |
| CCc1c(OC(=O)N2CCN(C)CC2)cc(O)c(-c2ccccc2)c1CCOCCOC [Compound 327, 4-Ethyl-3-[2-(2-methoxyethoxy)ethyl]-5-(4-methylpiperazin-1-ylcarbonyloxy)-2-phenylbenzen-1-ol] | ≤ 50 |  |
